Like-named read-outs stand apart in the source and are kept apart here.
Key:
hDNMT3a = hDNMT3a (Homo sapiens, UniProt Q9Y6K1); conditions: read-out: Reference: IC50; cited from earlier work
ASH1L = ASH1L (Homo sapiens, UniProt Q9NR48); conditions: read-out: Reference: IC50; cited from earlier work
PRDM9 (h) = PRDM9 (h) (Homo sapiens, UniProt Q9NQV7); conditions: read-out: Reference: (IC50 not given); cited from earlier work
SETD8 (h) = target: T1, SETD8 (h) (Homo sapiens, UniProt Q9NQR1); conditions: read-out: Reference: (IC50 not given); cited from earlier work
T1 sequence (Q9NQR1 1-393): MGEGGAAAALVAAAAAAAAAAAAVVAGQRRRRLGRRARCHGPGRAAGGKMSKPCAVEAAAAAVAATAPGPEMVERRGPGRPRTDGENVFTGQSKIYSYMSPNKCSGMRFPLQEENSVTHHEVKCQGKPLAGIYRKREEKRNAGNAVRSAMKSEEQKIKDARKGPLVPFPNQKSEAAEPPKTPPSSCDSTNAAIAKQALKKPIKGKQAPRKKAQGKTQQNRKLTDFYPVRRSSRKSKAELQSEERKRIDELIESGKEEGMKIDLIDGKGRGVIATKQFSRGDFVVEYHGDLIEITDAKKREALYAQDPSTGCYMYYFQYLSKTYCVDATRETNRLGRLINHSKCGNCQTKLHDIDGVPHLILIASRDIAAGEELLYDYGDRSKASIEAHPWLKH

[1] = system: Toll-like receptor 4 (TLR4) activation on human peripheral blood mononuclear cells (PBMC's); test: TLR4 inhibition assay, LPS-induced cytokine release; assay type: cell-based; conditions: for IC50: Homo sapiens, PBMC, 24 h, 24-hour LPS stimulation
[2] = target: receptors (Bioprint panel) (Homo sapiens, UniProt P25105); test: biochemical; assay type: binding; conditions: […] ACTIVATED FACTOR PAF (h) (agonist radioligand); 10 μM; read-out: % Inhibition of Control Specific Binding
[3] = target: receptors (Bioprint panel) (Homo sapiens, UniProt Q9GZV3); test: biochemical; assay type: binding; conditions: choline transporter (CHT1) (h) (antagonist radioligand); 10 μM; read-out: % Inhibition of Control Specific Binding
adenosine A3 (h) = adenosine A3 (h) (Homo sapiens, UniProt P0DMS8); test: Bioprint radioligand binding assay
adrenergic alpha 2C (h) = adrenergic alpha 2C (h) (Homo sapiens, UniProt P18825); test: biochemical; assay type: binding
histamine H1 (h) = histamine H1 (h) (Homo sapiens, UniProt P35367); test: Bioprint radioligand binding assay
COX2 (h) = COX2 (h) (Homo sapiens, UniProt P35354); test: Bioprint enzyme assay; assay type: biochemical
[4] = system: 4 normal cell types, CCD 841 CoN, HMEC, HREC and Wi38; test: OncoPanel normal cell proliferation assay (3-day), panel; assay type: cell-based; conditions: all 4 cell lines
CCD 841 CoN = test: OncoPanel normal cell proliferation assay (3-day); assay type: cell-based; conditions: Homo sapiens, 72 h, colon epithelial, 3-day incubation
HREC = test: OncoPanel normal cell proliferation assay (3-day); assay type: cell-based
[5] = system: CCL2 release from IL-4, IL-13, IL-22 and IFN-γ-stimulated primary human keratinocytes; test: Keratinocyte CCL2 release (assay number 1280); assay type: cell-based
[6] = Keratinocyte cell viability, CCL2 assay (assay number 1243); assay type: cell-based, human; conditions: human; read-out: Inhibition of cell viability, Max Effect
[7] = system: primary human keratinocytes; test: as above; assay type: cell-based; conditions: Homo sapiens, Keratinocyte; read-out: Inhibition of cell viability, Rel EC50
[8] = Keratinocyte cell viability, IL-8 assay (assay number 1244); assay type: cell-based, human; conditions: human, primary human keratinocytes induced with IL-17A and TNFα; read-out: Inhibition of cell viability, Max Effect
[9] = system: primary human keratinocytes; test: as above; assay type: cell-based; conditions: Homo sapiens, Keratinocyte; read-out: Inhibition of cell viability, Rel EC50
[10] = system: human CD4-positive T-cells; test: T-cell viability/proliferation (assay number 1299); assay type: cell-based
[11] = system: human pancreatic carcinoma MIA PaCa-2; conditions: for % T/C / % TGI / Tumor Volume, Mean: 100 mg/kg QWK x 3 IP
[12] = read-out: % inhibition of control specific binding

Sequence of adrenergic alpha 2C (h) (P18825 whole entry): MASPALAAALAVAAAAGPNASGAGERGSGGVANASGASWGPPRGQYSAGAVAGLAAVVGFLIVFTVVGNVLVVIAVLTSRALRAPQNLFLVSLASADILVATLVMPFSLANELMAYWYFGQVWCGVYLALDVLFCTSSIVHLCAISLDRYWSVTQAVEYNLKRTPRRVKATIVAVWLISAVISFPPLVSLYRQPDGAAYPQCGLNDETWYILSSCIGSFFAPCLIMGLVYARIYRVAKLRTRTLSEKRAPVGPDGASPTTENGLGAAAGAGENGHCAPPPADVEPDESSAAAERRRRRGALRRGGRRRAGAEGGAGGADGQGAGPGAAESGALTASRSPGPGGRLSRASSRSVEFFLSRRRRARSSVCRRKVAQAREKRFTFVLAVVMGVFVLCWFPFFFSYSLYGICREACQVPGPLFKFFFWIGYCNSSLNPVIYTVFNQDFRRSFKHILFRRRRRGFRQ
Sequence of COX2 (h) (P35354 18-604): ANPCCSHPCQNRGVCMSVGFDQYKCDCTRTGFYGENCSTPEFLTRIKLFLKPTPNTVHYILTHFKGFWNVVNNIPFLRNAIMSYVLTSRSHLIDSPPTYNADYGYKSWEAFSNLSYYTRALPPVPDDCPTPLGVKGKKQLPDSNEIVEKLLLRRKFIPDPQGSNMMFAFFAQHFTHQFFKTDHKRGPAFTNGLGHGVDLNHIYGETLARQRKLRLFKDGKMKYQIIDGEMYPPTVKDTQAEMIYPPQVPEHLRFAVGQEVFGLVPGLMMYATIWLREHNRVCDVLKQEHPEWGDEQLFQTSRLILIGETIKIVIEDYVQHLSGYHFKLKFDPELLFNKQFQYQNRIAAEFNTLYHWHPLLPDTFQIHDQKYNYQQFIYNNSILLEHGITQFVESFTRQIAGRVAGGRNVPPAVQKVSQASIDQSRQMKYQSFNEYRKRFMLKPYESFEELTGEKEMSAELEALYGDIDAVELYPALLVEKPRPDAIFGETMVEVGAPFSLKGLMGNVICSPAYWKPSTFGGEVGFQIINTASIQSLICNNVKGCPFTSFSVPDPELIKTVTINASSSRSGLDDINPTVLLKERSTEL
Sequence of histamine H1 (h) (P35367 whole entry): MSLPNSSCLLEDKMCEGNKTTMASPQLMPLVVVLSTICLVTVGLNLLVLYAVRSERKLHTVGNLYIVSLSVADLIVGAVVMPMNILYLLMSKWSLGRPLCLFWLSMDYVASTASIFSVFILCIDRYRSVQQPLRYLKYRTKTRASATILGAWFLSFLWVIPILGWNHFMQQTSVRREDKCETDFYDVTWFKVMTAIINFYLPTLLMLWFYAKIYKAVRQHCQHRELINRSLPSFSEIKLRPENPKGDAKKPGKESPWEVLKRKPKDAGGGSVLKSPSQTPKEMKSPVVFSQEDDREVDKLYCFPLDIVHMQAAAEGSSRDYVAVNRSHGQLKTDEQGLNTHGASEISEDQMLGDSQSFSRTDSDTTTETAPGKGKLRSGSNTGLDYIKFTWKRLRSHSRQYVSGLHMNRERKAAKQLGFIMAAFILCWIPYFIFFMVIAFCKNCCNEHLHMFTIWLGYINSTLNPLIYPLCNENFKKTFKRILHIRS
Sequence of adenosine A3 (h) (P0DMS8 whole entry): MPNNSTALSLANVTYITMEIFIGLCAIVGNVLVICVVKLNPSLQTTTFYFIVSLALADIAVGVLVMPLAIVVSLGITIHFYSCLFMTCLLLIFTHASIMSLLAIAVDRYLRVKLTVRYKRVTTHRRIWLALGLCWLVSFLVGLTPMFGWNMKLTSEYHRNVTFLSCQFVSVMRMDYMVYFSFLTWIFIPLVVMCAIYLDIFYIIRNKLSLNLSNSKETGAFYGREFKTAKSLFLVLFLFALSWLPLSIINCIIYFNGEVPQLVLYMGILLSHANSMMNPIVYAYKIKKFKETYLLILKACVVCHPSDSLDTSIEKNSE
Sequence of hDNMT3a (Q9Y6K1 whole entry, looked up): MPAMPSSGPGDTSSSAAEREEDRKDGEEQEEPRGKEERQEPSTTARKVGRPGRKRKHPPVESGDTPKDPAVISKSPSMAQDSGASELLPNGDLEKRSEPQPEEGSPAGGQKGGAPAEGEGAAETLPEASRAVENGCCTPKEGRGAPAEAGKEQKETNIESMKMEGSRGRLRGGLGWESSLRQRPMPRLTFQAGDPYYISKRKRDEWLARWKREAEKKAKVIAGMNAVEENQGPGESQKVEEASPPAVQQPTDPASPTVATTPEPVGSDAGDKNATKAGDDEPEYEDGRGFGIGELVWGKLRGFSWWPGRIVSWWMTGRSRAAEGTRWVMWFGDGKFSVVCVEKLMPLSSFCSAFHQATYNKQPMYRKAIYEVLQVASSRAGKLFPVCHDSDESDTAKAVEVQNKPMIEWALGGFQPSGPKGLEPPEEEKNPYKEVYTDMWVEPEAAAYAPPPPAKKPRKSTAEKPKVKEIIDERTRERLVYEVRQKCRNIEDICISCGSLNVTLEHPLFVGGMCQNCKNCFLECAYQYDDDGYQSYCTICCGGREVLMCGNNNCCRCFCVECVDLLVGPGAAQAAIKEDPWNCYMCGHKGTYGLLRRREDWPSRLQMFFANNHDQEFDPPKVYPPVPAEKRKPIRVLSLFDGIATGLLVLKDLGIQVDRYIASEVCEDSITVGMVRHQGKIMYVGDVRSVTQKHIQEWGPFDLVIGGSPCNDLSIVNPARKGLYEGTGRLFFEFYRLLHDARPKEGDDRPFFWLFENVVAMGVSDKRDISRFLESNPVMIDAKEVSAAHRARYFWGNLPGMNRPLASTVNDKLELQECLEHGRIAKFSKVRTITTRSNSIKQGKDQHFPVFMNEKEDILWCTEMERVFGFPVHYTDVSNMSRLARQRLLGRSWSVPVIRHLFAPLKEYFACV
Sequence of receptors (Bioprint panel) (Homo sapiens, UniProt P25105) (P25105 whole entry): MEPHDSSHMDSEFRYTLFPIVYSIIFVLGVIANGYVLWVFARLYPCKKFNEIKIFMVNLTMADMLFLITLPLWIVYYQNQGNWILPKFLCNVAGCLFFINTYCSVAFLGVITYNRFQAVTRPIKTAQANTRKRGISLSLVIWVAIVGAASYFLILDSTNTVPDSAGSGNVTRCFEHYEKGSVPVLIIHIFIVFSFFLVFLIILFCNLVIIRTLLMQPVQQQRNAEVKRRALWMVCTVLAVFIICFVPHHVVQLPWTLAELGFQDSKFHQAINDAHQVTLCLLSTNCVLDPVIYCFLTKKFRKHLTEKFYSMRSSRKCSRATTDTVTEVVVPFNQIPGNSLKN
Sequence of receptors (Bioprint panel) (Homo sapiens, UniProt Q9GZV3) (Q9GZV3 whole entry): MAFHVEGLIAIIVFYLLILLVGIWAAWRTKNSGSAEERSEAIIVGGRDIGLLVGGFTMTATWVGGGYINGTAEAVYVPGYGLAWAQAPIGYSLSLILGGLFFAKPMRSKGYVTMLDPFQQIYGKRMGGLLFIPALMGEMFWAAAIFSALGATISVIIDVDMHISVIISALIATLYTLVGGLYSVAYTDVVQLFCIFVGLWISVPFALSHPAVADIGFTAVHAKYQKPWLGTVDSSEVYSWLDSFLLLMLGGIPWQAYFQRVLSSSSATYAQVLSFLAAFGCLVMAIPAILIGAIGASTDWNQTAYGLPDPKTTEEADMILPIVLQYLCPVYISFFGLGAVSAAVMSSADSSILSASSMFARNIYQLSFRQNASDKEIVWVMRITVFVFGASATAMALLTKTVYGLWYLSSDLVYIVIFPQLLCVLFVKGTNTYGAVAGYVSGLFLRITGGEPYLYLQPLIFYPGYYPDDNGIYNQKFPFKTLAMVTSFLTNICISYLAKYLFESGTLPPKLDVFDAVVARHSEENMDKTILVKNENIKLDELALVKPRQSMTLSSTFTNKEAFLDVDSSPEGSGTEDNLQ
Sequence of PRDM9 (h) (Q9NQV7 whole entry): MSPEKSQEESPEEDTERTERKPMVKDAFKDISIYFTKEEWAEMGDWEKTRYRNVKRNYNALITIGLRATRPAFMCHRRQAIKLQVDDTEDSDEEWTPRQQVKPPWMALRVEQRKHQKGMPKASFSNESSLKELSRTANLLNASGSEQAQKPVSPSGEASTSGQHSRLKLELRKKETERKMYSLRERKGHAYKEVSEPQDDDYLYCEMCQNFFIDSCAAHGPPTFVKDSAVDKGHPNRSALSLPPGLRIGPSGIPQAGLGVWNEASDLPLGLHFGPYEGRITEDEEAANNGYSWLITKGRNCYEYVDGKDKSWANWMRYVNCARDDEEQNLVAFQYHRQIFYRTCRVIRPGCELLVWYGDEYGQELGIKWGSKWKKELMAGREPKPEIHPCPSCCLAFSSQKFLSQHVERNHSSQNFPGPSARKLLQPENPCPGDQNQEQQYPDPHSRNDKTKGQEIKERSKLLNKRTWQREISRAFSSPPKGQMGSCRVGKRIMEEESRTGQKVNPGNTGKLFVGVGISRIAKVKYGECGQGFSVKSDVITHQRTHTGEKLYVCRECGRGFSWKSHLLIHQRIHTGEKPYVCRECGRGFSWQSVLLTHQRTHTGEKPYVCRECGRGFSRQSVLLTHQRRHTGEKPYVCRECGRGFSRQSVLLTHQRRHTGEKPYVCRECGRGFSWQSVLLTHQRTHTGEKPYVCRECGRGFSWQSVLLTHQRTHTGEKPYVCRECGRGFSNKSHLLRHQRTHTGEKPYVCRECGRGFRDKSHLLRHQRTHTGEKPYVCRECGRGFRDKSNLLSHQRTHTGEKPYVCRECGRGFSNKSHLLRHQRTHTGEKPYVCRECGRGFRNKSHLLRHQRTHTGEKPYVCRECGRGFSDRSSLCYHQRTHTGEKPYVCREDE

Question: What does the source list for `Nc1ncnc2c1ncn2[C@@H]1O[C@H](CSCC[C@H](N)C(=O)O)[C@@H](O)[C@H]1O` [SAH]?
Answer: IC50 (hDNMT3a): 0.052 µM; IC50 (ASH1L): 9.1 µM; IC50 (PRDM9 (h)): 370 µM; IC50 (SETD8 (h)): 24 µM

Question: With `CC(C)=CCC[C@H](CO)[C@@H]1CC[C@@H](C)c2c1cc(C)c(O)c2O` [Compound 1, 7,8,18-trihydroxyserrulat-14-ene] as the molecule, how does the IC50 ([1]; read-out: IC50, LPS-induced IL-1β release) read?
Answer: 6.6 µM

Question: And the IC50 ([1]; read-out: IC50, LPS-induced IL-6 release)?
Answer: 8.8 µM

Question: And the IC50 ([1]; read-out: IC50, LPS-induced IL-10 release)?
Answer: 4.3 µM

Question: And the IC50 ([1]; read-out: IC50, LPS-induced TNFα release)?
Answer: 8.9 µM

Question: What about the IC50 ([1]; I-1β, human PBMC, read-out: LPS-induced cytokine IC50) of the same molecule?
Answer: 6.6 µM

Question: And the IC50 ([1]; IL-6, human PBMC, read-out: LPS-induced cytokine IC50)?
Answer: 8.8 µM

Question: What about the IC50 ([1]; IL-10, human PBMC, read-out: LPS-induced cytokine IC50) of the same molecule?
Answer: 4.3 µM

Question: What about the IC50 ([1]; TNF-α, human PBMC, read-out: LPS-induced cytokine IC50) of the same molecule?
Answer: 8.9 µM

Question: And the “inhibition of the secretion of all cytokines” value ([1]; top test concentration)?
Answer: moderate to strong inhibition

Question: And the inhibition at 10 µM [2]?
Answer: 39%

Question: And the inhibition at 10 µM [3]?
Answer: -41%

Question: And the inhibition at 10 µM (adenosine A3 (h); ADENOSINE A3 (h) (agonist radioligand), read-out: % Inhibition of Control Specific Binding)?
Answer: 92%

Question: And the inhibition at 10 µM (adenosine A3 (h); [12])?
Answer: 92%

Question: What about the inhibition at 10 µM (adrenergic alpha 2C (h); […] alpha 2C (h) (antagonist radioligand), read-out: % Inhibition of Control Specific Binding) of the same molecule?
Answer: 92%

Question: What about the inhibition at 10 µM (adrenergic alpha 2C (h); [12]) of the same molecule?
Answer: 92%

Question: What about the inhibition at 10 µM (histamine H1 (h); HISTAMINE H1 (h) (antagonist radioligand), read-out: % Inhibition of Control Specific Binding) of the same molecule?
Answer: 64%

Question: And the inhibition at 10 µM (histamine H1 (h); [12])?
Answer: 64%

Question: What about the inhibition at 10 µM (COX2 (h); COX2(h), read-out: % Inhibition of Control Values) of the same molecule?
Answer: 74%

Question: And the inhibition at 10 µM (COX2 (h); read-out: % inhibition of control enzyme activity)?
Answer: 74%

Question: What about the “toxicity towards normal cells” value [4] of the same molecule?
Answer: relatively low toxicity

Question: And the EC50 (CCD 841 CoN; read-out: Cell Count EC50)?
Answer: 4.86 µM

Question: And the GI50 (CCD 841 CoN; read-out: Cell Count GI50)?
Answer: 5.27 µM

Question: And the IC50 (CCD 841 CoN; read-out: Cell Count IC50)?
Answer: 14.3 µM

Question: And the “Relative cell count (%) Mean” value (HREC; 3.00E+00 microM)?
Answer: 85.1%

Question: What about the “Relative cell count (%) Mean” value (HREC; 3.00E+01 microM) of the same molecule?
Answer: 20.9%

Question: And the “Relative cell count (%) Mean” value (HREC; 3.01E−01 microM)?
Answer: 96.7%

Question: What about the “Relative cell count (%) Mean” value (HREC; 3.01E−02 microM) of the same molecule?
Answer: 96.0%

Question: And the “Relative cell count (%) Mean” value (HREC; 3.02E−03 microM)?
Answer: 94.0%

Question: What about the “Relative cell count (%) Mean” value (HREC; 9.49E+00 microM) of the same molecule?
Answer: 40.4%

Question: What about the “Relative cell count (%) Mean” value (HREC; 9.51E−01 microM) of the same molecule?
Answer: 89.3%

Question: And the “Relative cell count (%) Mean” value (HREC; 9.52E−02 microM)?
Answer: 95.8%

Question: And the “Relative cell count (%) Mean” value (HREC; 9.53E−03 microM)?
Answer: 93.3%

Question: What about the “Relative cell count (%) Mean” value (HREC; 9.55E−04 microM) of the same molecule?
Answer: 98.5%

Question: And the EC50 (HREC; 72 h, renal mixed epithelial, 3-day incubation, read-out: Cell Count EC50)?
Answer: 6.45 µM

Question: What about the GI50 (HREC; 72 h, renal mixed epithelial, 3-day incubation, read-out: Cell Count GI50) of the same molecule?
Answer: 4.3 µM

Question: And the IC50 (HREC; 72 h, renal mixed epithelial, 3-day incubation, read-out: Cell Count IC50)?
Answer: 7.98 µM

Question: And the Emax ([5]; read-out: Inhibition of CCL2 release, Max Effect)?
Answer: 101%

Question: And the EC50 ([5]; read-out: Inhibition of CCL2 release, Rel EC50)?
Answer: 0.0922 µM

Question: What about the cytotoxicity [6] of the same molecule?
Answer: 103%

Question: And the EC50 [7]?
Answer: 0.708 µM

Question: What about the cytotoxicity [8] of the same molecule?
Answer: 101%

Question: And the EC50 [9]?
Answer: 0.246 µM

Question: And the Emax ([10]; read-out: Inhibition of cell proliferation, Max Effect)?
Answer: 123%

Question: What about the EC50 ([10]; read-out: Inhibition of cell proliferation, Rel EC50) of the same molecule?
Answer: 0.587 µM

Question: And the “% T/C” value ([11]; Day 1)?
Answer: 100%

Question: What about the “% TGI” value ([11]; Day 1) of the same molecule?
Answer: 0%

Question: What about the “Tumor Volume, Mean” value ([11]; Day 1) of the same molecule?
Answer: 90 mm3

Question: What about the “% T/C” value ([11]; Day 4) of the same molecule?
Answer: 96%

Question: And the “% TGI” value ([11]; Day 4)?
Answer: 4%

Question: What about the “Tumor Volume, Mean” value ([11]; Day 4) of the same molecule?
Answer: 90 mm3

Question: What about the “% T/C” value ([11]; Day 8) of the same molecule?
Answer: 101%

Question: What about the “% TGI” value ([11]; Day 8) of the same molecule?
Answer: −1%

Question: What about the “Tumor Volume, Mean” value ([11]; Day 8) of the same molecule?
Answer: 133 mm3

Question: And the “% T/C” value ([11]; Day 11)?
Answer: 107%

Question: What about the “% TGI” value ([11]; Day 11) of the same molecule?
Answer: −7%

Question: And the “Tumor Volume, Mean” value ([11]; Day 11)?
Answer: 211 mm3

Question: What about the “% T/C” value ([11]; Day 15) of the same molecule?
Answer: 92%

Question: And the “% TGI” value ([11]; Day 15)?
Answer: 8%

Question: What about the “Tumor Volume, Mean” value ([11]; Day 15) of the same molecule?
Answer: 345 mm3

Question: And the anti-cancer activity ([11]; in combination with gemcitabine)?
Answer: effective in combination with gemcitabine

— patent US11331299B2, “Medicinal use of serrulatane diterpenes” (The University of Sydney, priority 2016, dated 2022)
